Data taken from US20230265151A1, “GIP/GLP1 CO-AGONIST COMPOUNDS” (priority 2020, published 2023).
Like-named read-outs stand apart in the source and are kept apart here. *1 amine or outer side, *2 acyl side, *3 side chain or, on linkers, in order; H or OH if unused. Where a SMILES comes first, the peptide text is derived from it. Side-chain parts run from the residue outwards. [ ]: non-standard residue; d: D form. The star is where a group is joined. αMePhe(2-F) = C[C@](N)(Cc1ccccc1F)C(=O)O; γGlu = O=C(O)[C@H](CCC(=O)[*:2])N[*:1]; C14 diacid = O=C(O)CCCCCCCCCCCCC(=O)*; αMeY = C[C@](N)(Cc1ccc(O)cc1)C(=O)O; 4Pal = N[C@@H](Cc1ccncc1)C(=O)O; αMeL = CC(C)C[C@](C)(N)C(=O)O; Orn = NCCC[C@H](N)C(=O)O; AEEA = NCCOCCOCC(=O)O; Aib = CC(C)(N)C(=O)O

Key:
Assay type in all cases: cell-based
hGLP-1R = hGLP-1R (Homo sapiens, UniProt P43220); test: Functional cAMP formation (HTRF) in HEK-293 clonal cells expressing hGLP-1R, 0.1% bovine casein, without or with 1.0% human serum albumin; parameters: expressed in transfected cells; conditions: 37° C.; for Emax: percent of maximal response to GLP-1(7-36)NH2, read-out: hGLP-1R Emax, % ± SEM; for EC50: geometric mean, read-out: hGLP-1R EC50, nM (SEM, n)
Method in brief: (§1)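 Cells were stimulated with peptide for 30 min at 37° C, then lysed in buffer carrying cAMP-d2 and anti-cAMP Eu3+-cryptate for a competitive HTRF read after at least 60 min at room temperature. The 665/620 nm ratio was converted to nM cAMP against a standard curve.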

hGCGR = biological target: T1, hGCGR (Homo sapiens, UniProt P47871); test: Functional cAMP formation (HTRF) in HEK-293 clonal cells expressing hGCGR, 0.1% bovine casein, without or with 1.0% human serum albumin; conditions: read-out: hGCGR EC50, nM (SEM, n)
T1 construct: expressed in transfected cells
Method in brief: as §1

hGIPR = biological target: T2, hGIPR (Homo sapiens, UniProt P48546); test: Functional cAMP formation (HTRF) in HEK-293 clonal cells expressing hGIPR, 0.1% bovine casein, without or with 1.0% human serum albumin; conditions: for Emax: read-out: hGIPR Emax, % ± SEM; for EC50: cAMP, 0.1% bovine casein (no human serum albumin), geometric mean, read-out: hGIPR EC50, nM (SEM, n)
T2 construct: expressed in transfected cells
T2 sequence (P48546 22-466): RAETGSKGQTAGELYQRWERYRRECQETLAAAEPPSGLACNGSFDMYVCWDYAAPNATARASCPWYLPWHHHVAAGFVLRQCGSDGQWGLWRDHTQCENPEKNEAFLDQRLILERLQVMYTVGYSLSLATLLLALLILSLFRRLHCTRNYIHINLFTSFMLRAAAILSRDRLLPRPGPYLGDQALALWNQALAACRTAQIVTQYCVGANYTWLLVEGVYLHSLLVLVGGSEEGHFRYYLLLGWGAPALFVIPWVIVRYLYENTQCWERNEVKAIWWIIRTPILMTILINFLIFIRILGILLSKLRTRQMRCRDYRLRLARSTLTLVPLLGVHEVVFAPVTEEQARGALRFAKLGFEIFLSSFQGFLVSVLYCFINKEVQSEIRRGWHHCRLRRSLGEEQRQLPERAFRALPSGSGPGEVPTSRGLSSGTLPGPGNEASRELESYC
Method in brief: as §1

T1 sequence (P47871 26-477): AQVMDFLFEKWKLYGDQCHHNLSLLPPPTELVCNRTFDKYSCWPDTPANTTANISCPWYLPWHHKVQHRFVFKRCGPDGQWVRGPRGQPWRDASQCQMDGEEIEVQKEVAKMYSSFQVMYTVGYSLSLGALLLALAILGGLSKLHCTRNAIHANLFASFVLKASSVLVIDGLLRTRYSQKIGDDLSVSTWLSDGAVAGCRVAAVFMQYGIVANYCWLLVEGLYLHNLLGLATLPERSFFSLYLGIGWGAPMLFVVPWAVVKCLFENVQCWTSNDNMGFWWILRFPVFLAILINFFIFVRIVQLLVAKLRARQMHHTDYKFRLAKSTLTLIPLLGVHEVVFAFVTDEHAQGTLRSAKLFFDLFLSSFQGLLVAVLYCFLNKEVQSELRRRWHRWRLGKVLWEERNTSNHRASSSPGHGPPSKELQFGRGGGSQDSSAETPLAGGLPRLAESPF
hGLP-1R, sequence (P43220 24-463): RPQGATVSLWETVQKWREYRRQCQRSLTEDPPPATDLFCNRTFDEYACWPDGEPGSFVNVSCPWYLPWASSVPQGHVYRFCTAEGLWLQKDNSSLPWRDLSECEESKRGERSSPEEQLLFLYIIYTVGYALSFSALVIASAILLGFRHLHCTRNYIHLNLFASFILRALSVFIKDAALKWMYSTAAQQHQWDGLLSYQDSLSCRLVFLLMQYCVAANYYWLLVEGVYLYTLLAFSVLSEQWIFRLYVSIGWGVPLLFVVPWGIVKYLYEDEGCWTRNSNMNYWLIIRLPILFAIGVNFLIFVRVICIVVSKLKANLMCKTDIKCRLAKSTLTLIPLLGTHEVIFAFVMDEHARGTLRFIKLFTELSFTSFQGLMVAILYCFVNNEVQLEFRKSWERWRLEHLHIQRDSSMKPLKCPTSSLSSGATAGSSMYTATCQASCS

Compound	Emax (hGLP-1R; HEK293, cAMP, 0.1% bovine casein and 1.0% human serum albumin)	EC50 (hGLP-1R; cAMP, 0.1% bovine casein (no human serum albumin))	EC50 (hGCGR; cAMP, 37° C., 0.1% bovine casein (no human serum albumin), geometric mean)	EC50 (hGCGR; cAMP, 37° C., 0.1% bovine casein and 1.0% human serum albumin, geometric mean (SEM, n))	Emax (hGIPR; HEK293, cAMP, 37° C., 0.1% bovine casein and 1.0% human serum albumin, percent of maximal response to GIP(1-42)NH2)	Emax (hGIPR; HEK293, cAMP, 37° C., 0.1% bovine casein, percent of maximal response to GIP(1-42)NH2, arithmetic mean)	EC50 (hGIPR; 37° C.)	EC50 (hGLP-1R; 0.1% bovine casein and 1.0% human serum albumin)	Emax (hGLP-1R; HEK293, 0.1% bovine casein and 1.0% human serum albumin)	EC50 (hGCGR; 0.1% bovine casein and 1.0% human serum albumin, 37° C., geometric mean)	EC50 (hGCGR; cAMP, incubated at 37° C., 0.1% bovine casein (no human serum albumin), geometric mean)	Emax (hGIPR; HEK293, 0.1% bovine casein and 1.0% human serum albumin, 37° C., percent of maximal response to GIP(1-42)NH2)	Emax (hGIPR; HEK293, percent of maximal response to GIP(1-42)NH2, 37° C., 0.1% bovine casein, arithmetic mean)	EC50 (hGIPR; incubated at 37° C.)
CC[C@H](C)[C@H](NC(=O)[C@H](CCCN)NC(=O)[C@H](CC(=O)O)NC(=O)[C@H](CC(C)C)NC(=O)[C@](C)(CC(C)C)NC(=O)[C@@H](NC(=O)C(C)(C)NC(=O)[C@H](Cc1ccncc1)NC(=O)[C@H](CC(=O)O)NC(=O)[C@H](CO)NC(=O)[C@@H](NC(=O)[C@](C)(Cc1ccccc1F)NC(=O)[C@@H](NC(=O)CNC(=O)[C@H](CCC(=O)O)NC(=O)C(C)(C)NC(=O)[C@@H](N)Cc1ccc(O)cc1)[C@@H](C)O)[C@@H](C)O)[C@@H](C)CC)C(=O)N[C@@H](C)C(=O)N[C@@H](CCC(N)=O)C(=O)NC(C)(C)C(=O)N[C@@H](CCCCNC(=O)COCCOCCNC(=O)CC[C@H](NC(=O)CCCCCCCCCCCCC(=O)O)C(=O)O)C(=O)N[C@@H](Cc1ccccc1)C(=O)N[C@H](C(=O)N[C@H](CCC(=O)O)C(=O)N[C@@](C)(Cc1ccc(O)cc1)C(=O)N[C@@H](CC(C)C)C(=O)N[C@H](C(=O)N[C@@H](CCC(=O)O)C(=O)NCC(=O)NCC(=O)N1CCC[C@H]1C(=O)N[C@@H](CO)C(=O)N[C@@H](CO)C(=O)NCC(=O)N[C@@H](C)C(=O)N1CCC[C@H]1C(=O)N1CCC[C@H]1C(=O)N1CCC[C@H]1C(=O)N[C@@H](CO)C(=O)N[C@@H](CCCCNC(=O)COCCOCCNC(=O)CC[C@H](NC(=O)CCCCCCCCCCCCC(=O)O)C(=O)O)C(N)=O)[C@@H](C)CC)[C@@H](C)CC [Example 341] (H-Y[Aib]EGT[αMePhe(2-F)]TSD[4Pal][Aib]I[αMeL]LD[Orn]IAQ[Aib]K([AEEA-γGlu-C14 diacid])FI[dE][αMeY]LIEGGPSSGAPPPSK([AEEA-γGlu-C14 diacid])-NH2)	113%	0.329 nM	> 9950 nM	> 9950 nM	83.6%	91.4%	0.0127 nM	–	–	–	–	–	–	–
CC[C@H](C)[C@H](NC(=O)[C@H](Cc1ccccc1)NC(=O)[C@H](CCC(=O)O)NC(=O)C(C)(C)NC(=O)[C@H](CCC(N)=O)NC(=O)[C@H](C)NC(=O)[C@H](CCCCNC(=O)COCCOCCNC(=O)COCCOCCNC(=O)CC[C@H](NC(=O)CCCCCCCCCCCCC(=O)O)C(=O)O)NC(=O)[C@H](CCCN)NC(=O)[C@H](CC(=O)O)NC(=O)[C@H](CC(C)C)NC(=O)[C@](C)(CC(C)C)NC(=O)[C@@H](NC(=O)[C@H](CO)NC(=O)[C@H](Cc1ccncc1)NC(=O)[C@H](CC(=O)O)NC(=O)[C@H](CO)NC(=O)[C@@H](NC(=O)[C@](C)(Cc1ccccc1F)NC(=O)[C@@H](NC(=O)CNC(=O)[C@H](CCC(=O)O)NC(=O)C(C)(C)NC(=O)[C@@H](N)Cc1ccc(O)cc1)[C@@H](C)O)[C@@H](C)O)[C@@H](C)CC)C(=O)NCC(=O)N[C@@](C)(Cc1ccc(O)cc1)C(=O)N[C@@H](CC(C)C)C(=O)N[C@H](C(=O)N[C@@H](CCC(=O)O)C(=O)NCC(=O)NCC(=O)N[C@@H](CCCCNC(=O)COCCOCCNC(=O)COCCOCCNC(=O)CC[C@H](NC(=O)CCCCCCCCCCCCC(=O)O)C(=O)O)C(=O)N[C@@H](CO)C(=O)N[C@@H](CO)C(=O)NCC(=O)N[C@@H](C)C(=O)N1CCC[C@H]1C(=O)N1CCC[C@H]1C(=O)N1CCC[C@H]1C(=O)N[C@@H](CO)C(N)=O)[C@@H](C)CC [Example 104]	–	–	–	–	–	–	–	12.3 nM	95.8%	> 9950 nM	> 9950 nM	95.9%	94.9%	0.0361 nM
